# Assay results from patent US10071964B2, “Disubstituted piperidines as butyrylcholinesterase inhibitors” (priority 2015, dated 2018).
# Tests used:
# [1] = biological target: human recombinant butyrylcholinesterase (huBChE) (Homo sapiens, UniProt P06276); assay: biochemical; settings: read-out: IC50 ± STD (μM) huBChE
# Text: (§1) Ellman's method was used to evaluate the inhibitory activities of the synthesized compounds against the cholinesterases. […] As a substrate butyrylthiocholine (BTC) and acetylthiocholine (ATC) iodides were used for BChE and AChE, respectively. […] For the reference sample, 1% dimethylsulfoxide (DMSO) replaced the inhibitor's solution.
# (§2) Potency of the inhibitor is expressed as a residual activity (RA) of the enzyme at the employed inhibitor's concentration, half maximal inhibitory concentration (IC50 value) and as an inhibition constant (Ki).
# (§3) The enzyme reactions were carried out using murine acetylcholinesterase (mAChE) and human recombinant butyrylcholinesterase (huBChE). From the lyophilised powders of both enzymes, the solutions were obtained by dissolution of the powders in 10 mM MES buffer (pH 6.5) to reach the concentration of 4 mg/mL. The concentrated enzyme solution was diluted prior use in 100 mM phosphate buffer (pH 8.0) to reach the activity of the enzyme in the assay of approximately 500 mAu per minute.
# (§4) ATCI in BTCI solutions were prepared in 100 mM phosphate buffer (pH 8.0) to reach the final concentration in the assay of 500 μM.
# (§5) Enzyme solutions were prepared by dilution of the concentrated stocks in the 100 mM phosphate buffer (pH 8.0). […] Enzyme reaction was started with the addition of the substrate. The DMSO concentration in the test solution was always 1%. […] For the determination of blank (b) the phosphate buffer replaced the enzyme solution. Initial velocity of the enzyme reaction (v0) was determined from the linear curve of the enzyme reaction product formation, where each measurement was performed in triplicate. For the initial screening of inhibition ability, […] concentration of the investigated compounds was used. Compounds were pipetted in the corresponding wells to reach the final concentration of 10 μM. Tested compound and the enzyme solution were first preincubated for 300s, followed by the substrate addition, which triggered the enzyme reaction. The initial velocity in presence of the inhibitor was further calculated (vi). The inhibition capability was expressed as residual activity (RA=(vi−b)/(vo−b)).
# (§6) IC50 values were determined by plotting the RA versus the concentration of the investigated compound.
# (§7) Where X is a common logarithm of the concentration of the inhibitor and Y is the residual activity. For solving the equation Gnuplot software and an in-house python script were used. For the determination of the inhibition constant full progress curves of the product formation in presence and absence of investigated compounds were monitored. The curves were submitted in the ENZO web-application, which allows solving of numerical equations.
# [2] = biological target: T1, murine acetylcholinesterase (mAChE) (Mus musculus, UniProt P21836); assay: Ellman's method enzyme assay, mAChE inhibition; type: biochemical; settings: for % inhibition at 10 μM mAChE: 10 μM compound, n.i. = no inhibition
# T1 sequence (P21836 32-614): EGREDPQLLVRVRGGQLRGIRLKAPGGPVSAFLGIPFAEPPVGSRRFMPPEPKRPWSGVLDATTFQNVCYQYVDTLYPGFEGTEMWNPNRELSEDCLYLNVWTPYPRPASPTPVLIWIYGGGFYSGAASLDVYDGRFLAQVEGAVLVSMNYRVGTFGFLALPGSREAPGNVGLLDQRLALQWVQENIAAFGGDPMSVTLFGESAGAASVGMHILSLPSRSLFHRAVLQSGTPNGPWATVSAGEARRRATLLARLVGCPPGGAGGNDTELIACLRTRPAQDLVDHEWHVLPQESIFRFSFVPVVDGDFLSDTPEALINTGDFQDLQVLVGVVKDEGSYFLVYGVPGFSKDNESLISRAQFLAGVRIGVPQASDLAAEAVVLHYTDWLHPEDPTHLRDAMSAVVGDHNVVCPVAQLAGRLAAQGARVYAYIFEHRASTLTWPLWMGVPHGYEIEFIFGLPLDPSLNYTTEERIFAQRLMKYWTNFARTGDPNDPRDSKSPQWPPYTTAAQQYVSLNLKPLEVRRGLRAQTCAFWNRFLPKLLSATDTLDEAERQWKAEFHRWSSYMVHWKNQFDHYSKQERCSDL
# Text: as §1, §2, §3, §4
# Stock solutions of compounds were prepared in DMSO in a concentration of 10 mM.
# as §5, §6, §7
# Chain of human recombinant butyrylcholinesterase (huBChE) (P06276 29-602): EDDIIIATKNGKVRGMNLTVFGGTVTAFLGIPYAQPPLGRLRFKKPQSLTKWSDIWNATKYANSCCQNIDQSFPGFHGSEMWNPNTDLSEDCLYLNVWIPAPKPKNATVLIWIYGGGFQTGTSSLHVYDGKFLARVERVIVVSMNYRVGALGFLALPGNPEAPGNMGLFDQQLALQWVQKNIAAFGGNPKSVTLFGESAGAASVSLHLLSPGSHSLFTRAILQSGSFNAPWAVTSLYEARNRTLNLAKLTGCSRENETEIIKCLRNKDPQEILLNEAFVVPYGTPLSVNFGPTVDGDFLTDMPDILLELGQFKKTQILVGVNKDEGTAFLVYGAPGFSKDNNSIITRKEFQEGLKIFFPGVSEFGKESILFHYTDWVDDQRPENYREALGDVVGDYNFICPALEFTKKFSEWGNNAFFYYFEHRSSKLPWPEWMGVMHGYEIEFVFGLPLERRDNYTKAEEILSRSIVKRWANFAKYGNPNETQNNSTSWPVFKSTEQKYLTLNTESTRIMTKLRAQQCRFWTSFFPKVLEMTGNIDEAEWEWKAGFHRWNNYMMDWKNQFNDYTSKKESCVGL
smiles,measurement,setting,value
COCCN(CC1CCCN(C2Cc3ccccc3C2)C1)S(=O)(=O)c1ccccc1 (stereo not drawn),IC50,[1],0.343 ± 0.005 µM
same,% inhibition at 10 μM mAChE,"[2]; Table 2, formula (II)",n.i.
COCCN(CC1CCCN(Cc2ccc(N(C)C)cc2)C1)S(=O)(=O)c1ccc2ccccc2c1 (stereo not drawn),IC50,[1],0.311 ± 0.022 µM
same,% inhibition at 10 μM mAChE,"[2]; Table 2, formula (II)",n.i.
CN(CC1CCCN(Cc2ccc(F)cc2)C1)S(=O)(=O)c1ccc2ccccc2c1 (stereo not drawn),IC50,[1],0.427 ± 0.044 µM
same,% inhibition at 10 μM mAChE,"[2]; Table 2, formula (II)",n.i.
CN(CC1CCCN(Cc2ccccc2)C1)S(=O)(=O)c1ccc2ccccc2c1 (stereo not drawn),% inhibition at 10 μM mAChE,"[2]; Table 2, formula (II)",n.i.
Cc1nc(CN2CCCC(CNS(=O)(=O)c3ccc4ccccc4c3)C2)cs1 (stereo not drawn),IC50,[1],0.366 ± 0.031 µM
same,% inhibition at 10 μM mAChE,"[2]; Table 2, formula (II)",71 ± 3.68%
COCCN(CC1CCCN(C2Cc3ccccc3C2)C1)S(=O)(=O)c1ccc(N)cc1 (stereo not drawn),IC50,[1],0.314 ± 0.036 µM
same,% inhibition at 10 μM mAChE,"[2]; Table 2, formula (II)",n.i.
COCCN(CC1CCCN(C2Cc3ccccc3C2)C1)S(=O)(=O)c1ccc(OC)cc1 (stereo not drawn),IC50,[1],0.482 ± 0.066 µM
same,% inhibition at 10 μM mAChE,"[2]; Table 2, formula (II)",n.i.
COCCN(CC1CCCN(C2Cc3ccccc3C2)C1)S(=O)(=O)c1ccccc1C(=O)OC (stereo not drawn),IC50,[1],0.359 ± 0.018 µM
same,% inhibition at 10 μM mAChE,"[2]; Table 2, formula (II)",n.i.
COCCN(CC1CCCN(Cc2ccccc2)C1)S(=O)(=O)c1ccc2ccccc2c1 (stereo not drawn),% inhibition at 10 μM mAChE,"[2]; Table 2, formula (II)",n.i.
CCCN(CC1CCCN(Cc2ccccc2)C1)S(=O)(=O)c1ccc2ccccc2c1 (stereo not drawn),IC50,[1],0.0428 ± 0.0064 µM
same,% inhibition at 10 μM mAChE,"[2]; Table 2, formula (II)",n.i.
N#Cc1ccc(CN2CCCC(CNS(=O)(=O)c3ccc4ccccc4c3)C2)cc1 (stereo not drawn),IC50,[1],2.09 ± 0.328 µM
same,% inhibition at 10 μM mAChE,"[2]; Table 2, formula (II)",n.i.
COCCN(CC1CCCN(Cc2ccc(C#N)cc2)C1)S(=O)(=O)c1ccc2ccccc2c1 (stereo not drawn),IC50,[1],1.46 ± 0.115 µM
same,% inhibition at 10 μM mAChE,"[2]; Table 2, formula (II)",n.i.
COCCN(CC1CCCN(C2Cc3ccccc3C2)C1)S(=O)(=O)c1cccc([N+](=O)[O-])c1 (stereo not drawn),IC50,[1],3.61 ± 0.528 µM
Cc1cccc(CN2CCCC(CNS(=O)(=O)c3ccc4ccccc4c3)C2)c1 (stereo not drawn),IC50,[1],0.287 ± 0.022 µM
same,% inhibition at 10 μM mAChE,"[2]; Table 2, formula (II)",57 ± 3.55%
CN(C)CCN(CC1CCCN(C2Cc3ccccc3C2)C1)C(=O)c1ccc2ccccc2c1 (stereo not drawn),inhibition at 10 µM,"[2]; read-out: % inhibition ± STD at 10 μM inhibitor mAChE, Table 1, formula (I), 10 μM inhibitor",17.4 ± 3.7%
O=S(=O)(NCC1CCCN(Cc2ccc(F)cc2)C1)c1ccc2ccccc2c1 (stereo not drawn),IC50,[1],0.583 ± 0.043 µM
same,% inhibition at 10 μM mAChE,"[2]; Table 2, formula (II)",75 ± 4.19%
O=S(=O)(NCC1CCCN(Cc2ccccc2)C1)c1ccc2ccccc2c1 (stereo not drawn),% inhibition at 10 μM mAChE,"[2]; Table 2, formula (II)",n.i.
COCCN(CC1CCCN(C2Cc3ccccc3C2)C1)S(=O)(=O)c1cccc(N)c1 (stereo not drawn),% inhibition at 10 μM mAChE,"[2]; Table 2, formula (II)",n.i.
COCCN(CC1CCCN(Cc2ccccc2)C1)S(=O)(=O)c1cccc2ccccc12 (stereo not drawn),IC50,[1],0.059 ± 0.0054 µM
same,% inhibition at 10 μM mAChE,"[2]; Table 2, formula (II)",n.i.
O=S(=O)(NCC1CCN(Cc2ccccc2)CC1)c1ccc2ccccc2c1,IC50,"[2]; Table 2, formula (II), substrate ATCI 500 μM, read-out: IC50 ± STD (μM) mAChE",1.78 ± 0.085 µM
COCCCN(CC1CCCN(Cc2ccccc2)C1)S(=O)(=O)c1ccc2ccccc2c1 (stereo not drawn),% inhibition at 10 μM mAChE,"[2]; Table 2, formula (II)",n.i.
COCCN(CC1CCCN(Cc2ccccc2)C1)S(=O)(=O)c1ccc2ccc(OC)cc2c1 (stereo not drawn),IC50,[1],0.156 ± 0.033 µM
same,% inhibition at 10 μM mAChE,"[2]; Table 2, formula (II)",n.i.
COCCCN(CC1CCCN(Cc2ccccc2)C1)S(=O)(=O)c1ccc2ccc(OCC#N)cc2c1 (stereo not drawn),IC50,[1],0.113 ± 0.008 µM
same,% inhibition at 10 μM mAChE,"[2]; Table 2, formula (II)",n.i.
COCCCN(CC1CCN(C2Cc3ccccc3C2)CC1)S(=O)(=O)c1ccc2ccccc2c1,% inhibition at 10 μM mAChE,"[2]; Table 2, formula (II)",n.i.
COCCN(CC1CCCN(C2Cc3ccccc3C2)C1)S(=O)(=O)c1ccc(NC(C)=O)cc1 (stereo not drawn),IC50,[1],0.321 ± 0.035 µM
same,% inhibition at 10 μM mAChE,"[2]; Table 2, formula (II)",n.i.
COCCN(CC1CCCN(C2Cc3ccccc3C2)C1)S(=O)(=O)c1ccc([N+](=O)[O-])cc1 (stereo not drawn),IC50,[1],3.47 ± 0.052 µM
same,% inhibition at 10 μM mAChE,"[2]; Table 2, formula (II)",n.i.
O=S(=O)(NCC1CCCN(Cc2ccncc2)C1)c1ccc2ccccc2c1 (stereo not drawn),IC50,[1],1.67 ± 0.256 µM
same,% inhibition at 10 μM mAChE,"[2]; Table 2, formula (II)",n.i.
COCCN(CC1CCCN(C2Cc3ccccc3C2)C1)S(=O)(=O)c1ccc(F)cc1 (stereo not drawn),IC50,[1],0.887 ± 0.08 µM
same,% inhibition at 10 μM mAChE,"[2]; Table 2, formula (II)",n.i.
COCCN(CC1CCCN(Cc2cccc(F)c2)C1)S(=O)(=O)c1ccc2ccccc2c1 (stereo not drawn),IC50,[1],0.0491 ± 0.0012 µM
same,% inhibition at 10 μM mAChE,"[2]; Table 2, formula (II)",n.i.
COCCN(CC1CCN(C2Cc3ccccc3C2)CC1)S(=O)(=O)c1ccc2ccccc2c1,% inhibition at 10 μM mAChE,"[2]; Table 2, formula (II)",n.i.
O=S(=O)(NCC1CCCN(Cc2ccc(F)cc2Cl)C1)c1ccc2ccccc2c1 (stereo not drawn),IC50,[1],0.347 ± 0.06 µM
same,% inhibition at 10 μM mAChE,"[2]; Table 2, formula (II)",73 ± 3.60%
COCCN(CC1CCCN(C2Cc3ccccc3C2)C1)S(=O)(=O)c1ccc(C)cc1 (stereo not drawn),IC50,[1],0.279 ± 0.008 µM
same,% inhibition at 10 μM mAChE,"[2]; Table 2, formula (II)",n.i.
COCCN(CC1CCCN(Cc2cccc(C#N)c2)C1)S(=O)(=O)c1ccc2ccccc2c1 (stereo not drawn),IC50,[1],0.338 ± 0.008 µM
same,% inhibition at 10 μM mAChE,"[2]; Table 2, formula (II)",n.i.
CNC(=O)c1ccccc1S(=O)(=O)N(CCOC)CC1CCCN(C2Cc3ccccc3C2)C1 (stereo not drawn),IC50,[1],3.23 ± 0.492 µM
same,% inhibition at 10 μM mAChE,"[2]; Table 2, formula (II)",n.i.
COCCN(CC1CCCN(C2Cc3ccccc3C2)C1)S(=O)(=O)c1ccc2ccccc2c1 (stereo not drawn),% inhibition at 10 μM mAChE,"[2]; Table 2, formula (II)",72 ± 0.86%
COCCN(CC1CCCN(Cc2ccc(F)cc2)C1)S(=O)(=O)c1ccc2ccccc2c1 (stereo not drawn),IC50,[1],0.231 ± 0.006 µM
same,% inhibition at 10 μM mAChE,"[2]; Table 2, formula (II)",n.i.
CCN(CC1CCCN(Cc2ccccc2)C1)S(=O)(=O)c1ccc2ccccc2c1 (stereo not drawn),IC50,[1],0.038 ± 0.0026 µM
same,% inhibition at 10 μM mAChE,"[2]; Table 2, formula (II)",n.i.
COCCN(CC1CCCN(C2Cc3ccccc3C2)C1)S(=O)(=O)c1cccc(NC(C)=O)c1 (stereo not drawn),IC50,[1],8.21 ± 0.601 µM
same,% inhibition at 10 μM mAChE,"[2]; Table 2, formula (II)",n.i.
CCCCN(CC1CCCN(Cc2ccccc2)C1)S(=O)(=O)c1ccc2ccccc2c1 (stereo not drawn),IC50,[1],0.0355 ± 0.0044 µM
same,% inhibition at 10 μM mAChE,"[2]; Table 2, formula (II)",n.i.
COCCCN(CC1CCN(Cc2ccccc2)CC1)S(=O)(=O)c1ccc2ccccc2c1,% inhibition at 10 μM mAChE,"[2]; Table 2, formula (II)",n.i.
COCCN(CC1CCN(Cc2ccccc2)CC1)S(=O)(=O)c1ccc2ccccc2c1,% inhibition at 10 μM mAChE,"[2]; Table 2, formula (II)",n.i.
